Experimental data as given in PubChem BioAssay (NCI).
Values joined by “and” are separate entries in the source; they are usually repeats but may differ in a detail not shown here. Identical values can stand only once.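 Method: 48-hour compound exposure of cells in 96-well plates, five concentrations, linear interpolation of endpoints. Here, GI50 denotes the concentration required for 50% inhibition of growth. TGI is the concentration that stops growth completely.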

Tests used:
Test in all cases: growth of human tumour cells (NCI), 48 h
[1] = tested on: HT29 colon
[2] = tested on: OVCAR-4 ovarian
[3] = tested on: U251 CNS
[4] = tested on: CAKI-1 renal
[5] = tested on: IGROV1 ovarian
[6] = tested on: RPMI-8226 leukemia
[7] = tested on: MOLT-4 leukemia
[8] = tested on: SK-MEL-2 melanoma
[9] = tested on: DMS 273 small cell lung
[10] = tested on: LXFL 529 NSCLC

Compound	GI50 [1]	TGI [1]	GI50 [2]	TGI [2]	GI50 [3]	TGI [3] [µM]	GI50 [4]	TGI [4] [µM]	GI50 [5]	TGI [5] [µM]	GI50 [6]	TGI [6]	GI50 [7]	TGI [7]	GI50 [8]	TGI [8]	TGI [9] [µM]	TGI [10] [µM]
CCN(CCCN(C)C)Cc1cc(I)cc(C)c1O	14700 nM	32.4 µM	48.7 µM	> 100 µM	21200 nM	43.6	18500 nM	39.3	19800 nM	45.4	15100 nM	34 µM	17900 nM	36.5 µM	19.4 µM	37.4 µM		
Cn1cc(C(=O)c2ccccc2)c2ccccc2c1=O		> 100 µM		> 100 µM				> 100		> 100		> 100 µM		> 100 µM		> 100 µM	> 100	> 100
CN(c1ncccc1CNc1nc(Nc2ccc3c(c2)CC(=O)N3)ncc1C(F)(F)F)S(C)(=O)=O	1750 nM and 2330 nM	4.79 µM and 8.54 µM	2.1 µM and 3.56 µM	11 µM and > 10 µM	2170 nM and 2760 nM	> 47.3	2150 nM and 2870 nM	> 52.4	2420 nM and 1800 nM	> 100	2750 nM and 2390 nM	10.2 µM and 6.94 µM	2900 nM and 2670 nM	7.47 µM and 7.55 µM	1.57 µM and 1.85 µM	3.69 µM and 4.8 µM		
CN(C)C=Nc1ccn(CCO)c(=O)n1		> 100 µM		> 100 µM		> 100				> 100				> 100 µM		> 100 µM	> 100	> 100
O=C(Oc1cccc2cccnc12)c1cc2c(cc1Cl)SC(N(c1ccc(F)cc1)S(=O)(=O)c1ccc(Br)s1)=NS2(=O)=O	41000 nM	> 100 µM	17.8 µM	46.8 µM	26000 nM	95.6	31600 nM	97.6	60300 nM	> 100	28600 nM	96.3 µM	28700 nM	> 100 µM	34.3 µM	> 100 µM		
CC(=O)OCC1OC(n2cc(F)c(=O)[nH]c2=O)C(NC(=O)N(CCCl)N=O)C(OC(C)=O)C1OC(C)=O (stereo not drawn)		> 100 µM		> 100 µM		> 100		> 100		> 100		> 100 µM		> 100 µM			> 100	> 100
O=c1[nH]c2ccccc2c2ccccc12	> 100000 nM	> 100 µM	60.7 µM	> 100 µM	> 100000 nM	> 100	> 100000 nM	> 100	> 100000 nM	> 100	> 100000 nM	> 100 µM	> 100000 nM	> 100 µM	> 100 µM	> 100 µM		
Cc1cc2nc3c4cc(O)ccc4n(CCN(C)C)c3nc2cc1C	475 nM	2.31 µM	1.34 µM	3.63 µM	747 nM	4.46	337 nM	2.11	474 nM	2.89	417 nM	2.63 µM	377 nM	11.2 µM	1.65 µM	3.69 µM		
COc1ccc2c(c1OC)C[C@@H]1c3c(cc4c(c3-2)OCO4)CCN1C		41.3 µM		> 100 µM		> 100		> 100		99.1		42.9 µM		47.4 µM		88.7 µM		
CCOC(=O)C1Cc2c(cc3c4c(cccc24)N(C(C)=O)C3)N(C)C1 (stereo not drawn)		> 100 µM		> 100 µM		> 100		> 100		> 100		> 100 µM		> 100 µM		> 100 µM		
CC(C)c1[nH]nc(C(N)=O)c1N=NN(C)C		> 100 µM		> 100 µM		> 100		65.4		> 100		> 100 µM		> 100 µM		> 100 µM		
COC(=O)CCC(NC(=S)N/N=C(\C)c1cnc2ccccc2n1)C(=O)OC (stereo not drawn)		31.3 µM		> 100 µM		> 100				> 100		36.8 µM		59.4 µM		> 100 µM	> 100	> 100
CN1c2ccccc2N(C(=O)c2ccc([N+](=O)[O-])cc2)C(CC(=O)O)c2cccn21 (stereo not drawn)		> 100 µM		> 100 µM				> 100		> 100		> 100 µM		> 100 µM		> 100 µM	> 100	> 100
COc1ccc(/C=C/C(=O)c2cc(OC)c(OC)c(OC)c2)cc1OCC(=O)Nc1nc2ccc(OC(F)(F)F)cc2s1	3660 nM	79.4 µM	2.07 µM	5.14 µM	703 nM	2.58	2200 nM	6.03	2540 nM	5.56	2020 nM	> 100 µM	2890 nM	> 100 µM	4.97 µM	27.1 µM		
C=C1CC[C@@H]2[C@](C)(COC(C)=O)[C@H](OC(C)=O)CC[C@@]2(C)[C@@H]1CC(Nc1ccc(S(=O)(=O)NC(C)=O)cc1)C1=CCOC1=O (stereo partly drawn)	1570 nM	3.55 µM	4.14 µM	13.7 µM	3490 nM	12	3310 nM	11.2	5310 nM	15.4	1840 nM	6.53 µM	2200 nM	6.66 µM	8.68 µM	19.1 µM		
C[C@@H](NC1CCCC[C@H]1O)c1ccccc1 (stereo partly drawn)		> 100 µM		> 100 µM		> 100				> 100		> 100 µM		> 100 µM		> 100 µM	> 100	
CCC(C)[C@H]1O[C@]2(CC[C@@H]1C)C[C@@H]1C[C@@H](C/C=C(\C)[C@@H](OC3C[C@H](OC)C(O[C@H]4C[C@H](OC)[C@@H](O)[C@H](C)O4)[C@H](C)O3)[C@@H](C)/C=C/C=C3\CO[C@@H]4[C@H](O)C(C)=C[C@@H](C(=O)O1)[C@]34O)O2 (stereo partly drawn)	2400 nM	5.81 µM	3.28 µM	10.8 µM	2210 nM	10.6	2600 nM	11.2	2950 nM	13.5	2950 nM	14.9 µM	4770 nM	20.2 µM	2.04 µM	4.79 µM		
Nc1ncnc2c1ncn2[C@]1(CO)C=C(CO)C(O)C1O (stereo partly drawn)		> 100 µM		> 100 µM		> 100		> 100				> 100 µM		> 100 µM		> 100 µM	> 100	> 100
